# Measurements taken from US20250195521A1 (Revolution Medicines, Inc., priority 2020, published 2025).
# Where two headings read alike, the source gives them in different places.
# Legend:
# Type in all cases: biochemical
# [1] = molecular target: KRAS WT (Homo sapiens (Human), UniProt P01116+P62937); assay: Ras-Raf disruption/FRET/MOA assay, KRAS WT; details: read-out: KRAS WT FRET IC50
# Source text: (§1) Disruption of B-Raf Ras-Binding Domain (BRAF^RBD) Interaction with K-Ras by Compounds of the Invention (Also Called a FRET Assay or an MOA Assay)
# (§2) Note—The following protocol describes a procedure for monitoring disruption of K-Ras G12C (GMP-PNP) binding to BRAF^RBD by a compound of the invention. This protocol may also be executed substituting other Ras proteins or nucleotides, such as K-Ras G12D and K-Ras G13D.
# (§3) The purpose of this biochemical assay was to measure the ability of test compounds to facilitate ternary complex formation between a nucleotide-loaded K-Ras isoform and Cyclophilin A; the resulting ternary complex disrupts binding to a BRAF^RBD construct, inhibiting K-Ras signaling through a RAF effector. Data is reported as IC50 values.
# (§4) In assay buffer containing 25 mM HEPES pH 7.3, 0.002% Tween20, 0.1% BSA, 100 mM NaCl and 5 mM MgCl2, tagless Cyclophilin A, His6-K-Ras-GMPPNP, and GST-BRAF^RBD were combined in a 384-well assay plate at final concentrations of 25 μM, 12.5 nM, and 50 nM, respectively. Compound was present in plate wells as a 10-point 3-fold dilution series starting at a final concentration of 30 μM. After incubation at 25° C. for 3 hours, a mixture of anti-His Eu—W1024 and anti-GST allophycocyanin was then added to assay sample wells at final concentrations of 10 nM and 50 nM, respectively, and the reaction incubated for an additional 1.5 hours. […] Compounds that facilitate disruption of a K-Ras: RAF complex were identified as those eliciting a decrease in the TR-FRET ratio relative to DMSO control wells.
# [2] = molecular target: KRAS G12V (Homo sapiens (Human), UniProt P01116+P62937, G12V); assay: Ras-Raf disruption/FRET/MOA assay, KRAS G12V
# Source text: as §1, §2, §3, §4
# [3] = molecular target: KRAS G12S (Homo sapiens (Human), UniProt P01116+P62937, G12S); assay: Ras-Raf disruption/FRET/MOA assay, KRAS G12S; details: read-out: KRAS G12S FRET IC50
# Source text: as §1, §2, §3, §4
# [4] = molecular target: KRAS G12D (Homo sapiens (Human), UniProt P01116+P62937, G12D); assay: Ras-Raf disruption/FRET/MOA assay, KRAS G12D; details: read-out: KRAS G12D FRET IC50
# Source text: as §1, §2, §3, §4
# [5] = molecular target: KRAS G12C (Homo sapiens (Human), UniProt P01116+P62937, G12C); assay: Ras-Raf disruption/FRET/MOA assay, KRAS G12C; details: read-out: KRAS G12C FRET data IC50
# Source text: as §1, §2, §3, §4
# [6] = molecular target: KRAS G13D (Homo sapiens (Human), UniProt P01116+P62937, G13D); assay: Ras-Raf disruption/FRET/MOA assay, KRAS G13D; details: read-out: KRAS G13D FRET IC50
# Source text: as §1, §2, §3, §4
# [7] = molecular target: NRAS G12C (Homo sapiens (Human), UniProt P01111+P62937, G12C); assay: Ras-Raf disruption/FRET/MOA assay, NRAS G12C; details: read-out: NRAS G12C FRET data IC50
# Source text: as §1, §2, §3, §4
# [8] = molecular target: KRAS G13C (Homo sapiens (Human), UniProt P01116+P62937, G13C); assay: Ras-Raf disruption/FRET/MOA assay, KRAS G13C; details: read-out: KRAS G13C FRET IC50
# Source text: as §1, §2, §3, §4
# KRAS G12C, sequence (P01116-2 other isoform, or with tags, fused parts or gaps G12C): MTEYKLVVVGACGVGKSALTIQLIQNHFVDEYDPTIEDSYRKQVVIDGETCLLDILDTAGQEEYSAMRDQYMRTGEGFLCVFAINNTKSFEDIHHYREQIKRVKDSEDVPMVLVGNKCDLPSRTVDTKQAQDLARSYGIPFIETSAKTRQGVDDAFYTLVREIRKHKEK
# KRAS G12C, sequence (P62937 whole entry): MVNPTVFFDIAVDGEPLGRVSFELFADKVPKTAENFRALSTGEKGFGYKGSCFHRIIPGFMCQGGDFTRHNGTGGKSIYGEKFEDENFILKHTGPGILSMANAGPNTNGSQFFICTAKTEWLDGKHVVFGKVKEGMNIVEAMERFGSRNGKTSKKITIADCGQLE
# KRAS WT, sequence (P01116 other isoform, or with tags, fused parts or gaps): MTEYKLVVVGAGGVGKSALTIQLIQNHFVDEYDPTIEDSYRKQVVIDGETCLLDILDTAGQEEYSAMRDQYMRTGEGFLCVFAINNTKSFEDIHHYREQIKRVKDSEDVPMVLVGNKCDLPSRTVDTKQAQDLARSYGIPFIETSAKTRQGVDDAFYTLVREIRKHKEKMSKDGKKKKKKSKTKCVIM
# KRAS WT, sequence (P62937 whole entry, the tested form may be a part): as the sequence (P62937 whole entry) above
# KRAS G13D, sequence (P01116 other isoform, or with tags, fused parts or gaps G13D): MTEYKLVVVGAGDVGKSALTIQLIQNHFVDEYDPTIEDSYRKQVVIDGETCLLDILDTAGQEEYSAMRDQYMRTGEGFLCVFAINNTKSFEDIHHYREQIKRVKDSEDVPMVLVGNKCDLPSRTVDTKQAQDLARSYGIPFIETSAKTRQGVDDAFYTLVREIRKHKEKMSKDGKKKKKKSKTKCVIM
# KRAS G13D, sequence (P62937 whole entry): as the sequence (P62937 whole entry) above
# NRAS G12C, sequence (P01111 whole entry G12C): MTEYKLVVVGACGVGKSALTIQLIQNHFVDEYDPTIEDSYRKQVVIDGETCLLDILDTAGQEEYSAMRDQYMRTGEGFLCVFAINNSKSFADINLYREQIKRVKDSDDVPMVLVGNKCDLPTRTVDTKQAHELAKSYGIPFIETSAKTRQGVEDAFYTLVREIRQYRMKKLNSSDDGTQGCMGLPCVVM
# NRAS G12C, sequence (P62937 whole entry): as the sequence (P62937 whole entry) above
# KRAS G12D, sequence (P01116 other isoform, or with tags, fused parts or gaps G12D): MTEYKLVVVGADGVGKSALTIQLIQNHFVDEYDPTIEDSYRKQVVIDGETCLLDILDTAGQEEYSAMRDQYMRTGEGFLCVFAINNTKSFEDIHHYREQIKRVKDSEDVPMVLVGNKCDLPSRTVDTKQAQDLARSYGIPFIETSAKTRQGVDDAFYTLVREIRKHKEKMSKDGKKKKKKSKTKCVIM
# KRAS G12D, sequence (P62937 whole entry): as the sequence (P62937 whole entry) above
# KRAS G12V, sequence (P01116 other isoform, or with tags, fused parts or gaps G12V): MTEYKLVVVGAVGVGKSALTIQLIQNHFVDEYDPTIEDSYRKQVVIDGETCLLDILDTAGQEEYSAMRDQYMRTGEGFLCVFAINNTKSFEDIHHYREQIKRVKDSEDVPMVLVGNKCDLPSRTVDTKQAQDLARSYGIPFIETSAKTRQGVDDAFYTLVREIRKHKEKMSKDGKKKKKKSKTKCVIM
# KRAS G12V, sequence (P62937 whole entry): as the sequence (P62937 whole entry) above
# KRAS G13C, sequence (P01116 other isoform, or with tags, fused parts or gaps G13C): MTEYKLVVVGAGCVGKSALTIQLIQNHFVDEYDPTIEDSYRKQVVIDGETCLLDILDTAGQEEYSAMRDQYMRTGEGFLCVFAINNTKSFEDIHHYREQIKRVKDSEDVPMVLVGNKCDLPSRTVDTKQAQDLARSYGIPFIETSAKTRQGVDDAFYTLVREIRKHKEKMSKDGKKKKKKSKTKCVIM
# KRAS G13C, sequence (P62937 whole entry): as the sequence (P62937 whole entry) above
# KRAS G12S, sequence (P01116 other isoform, or with tags, fused parts or gaps G12S): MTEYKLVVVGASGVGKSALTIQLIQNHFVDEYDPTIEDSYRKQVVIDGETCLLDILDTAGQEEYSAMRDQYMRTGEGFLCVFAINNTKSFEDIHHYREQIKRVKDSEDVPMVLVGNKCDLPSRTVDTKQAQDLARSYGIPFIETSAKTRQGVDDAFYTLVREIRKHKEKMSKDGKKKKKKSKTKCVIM
# KRAS G12S, sequence (P62937 whole entry): as the sequence (P62937 whole entry) above
Structure (SMILES),IC50 [1] [µM],IC50 ([2]; read-out: KRAS G12V FRET IC50) [µM],IC50 [3] [µM],IC50 [4] [µM],IC50 [5] [µM],IC50 [6] [µM],IC50 [7] [µM],IC50 [8] [µM],IC50 [2] [µM]
"CCn1c(-c2cccnc2[C@@H](C)OC)c2c3cc(ccc31)-c1cc(O)cc(c1)C[C@H](NC(=O)[C@H](C(C)C)N(C)C(=O)[C@H]1CCN(C(=O)[C@H]3CN3)C1)C(=O)N1CCC[C@H](N1)C(=O)OCC(C)(C)C2 (atropisomer, axis not shown) [Example 43B]",1 to 10,–,–,–,–,–,–,–,–
"CCn1c(-c2cnccc2COC)c2c3cc(ccc31)-c1cc(O)cc(c1)C[C@H](NC(=O)[C@H](C(C)C)N(C)C(=O)CCN(C)C(=O)[C@H]1CN1)C(=O)N1CCC[C@H](N1)C(=O)OCC(C)(C)C2 (single isomer, unassigned) [Example 41]",0.1 to 1,0.1 to 1,0.1 to 1,0.1 to 1,< 0.01,0.1 to 1,< 0.01,0.01 to 0.1,–
"CCn1c(-c2cnccc2COC)c2c3cc(ccc31)-c1cc(O)cc(c1)C[C@H](NC(=O)[C@H](C(C)C)N(C)C(=O)[C@H]1CCN(C(=O)[C@H]3CN3)C1)C(=O)N1CCC[C@H](N1)C(=O)OCC(C)(C)C2 [Example 1, (3S)-1-((R)-aziridine-2-carbonyl)-N-((2S)-1-(((6^3S,4S)-1^1-ethyl-25-hydroxy-1^2-(4-(methoxymethyl)pyridin-3-yl)-10,10-dimethyl-5,7-dioxo-6^1,6^2,6^3,6^4,6^5,6^6-hexahydro-1^1H-8-oxa-1 (5,3)-indola-6 (1,3)-pyridazina-2 (1,3)-benzenacycloundecaphane-4-yl)amino)-3-methyl-1-oxobutan-2-yl)-N-methylpyrrolidine-3-carboxamide]",0.1 to 1,0.01 to 0.1,0.01 to 0.1,0.1 to 1,< 0.01,0.1 to 1,< 0.01,0.1 to 1,–
CCn1c(-c2cnccc2COC)c2c3cc(ccc31)-c1cc(O)cc(c1)C[C@H](NC(=O)[C@H](C(C)C)N(C)C(=O)[C@H]1CCN(C(=O)[C@@H]3CN3)C1)C(=O)N1CCC[C@H](N1)C(=O)OCC(C)(C)C2 [Example 2],0.1 to 1,0.1 to 1,0.1 to 1,0.1 to 1,0.01 to 0.1,0.1 to 1,0.01 to 0.1,0.1 to 1,–
CCn1c(-c2cnccc2COC)c2c3cc(ccc31)-c1cc(O)cc(c1)C[C@H](NC(=O)[C@H](C(C)C)N(C)C(=O)C1CCN(C(=O)[C@H]3CN3)CC1)C(=O)N1CCC[C@H](N1)C(=O)OCC(C)(C)C2 [Example 3],0.1 to 1,0.1 to 1,0.1 to 1,1 to 10,0.01 to 0.1,0.1 to 1,0.01 to 0.1,0.01 to 0.1,–
CCn1c(-c2cnccc2COC)c2c3cc(ccc31)-c1cc(O)cc(c1)C[C@H](NC(=O)[C@H](C(C)C)N(C)C(=O)C1CCN(C(=O)[C@@H]3CN3)CC1)C(=O)N1CCC[C@H](N1)C(=O)OCC(C)(C)C2 [Example 4],0.1 to 1,0.1 to 1,0.1 to 1,1 to 10,0.01 to 0.1,0.1 to 1,0.1 to 1,0.01 to 0.1,–
CCn1c(-c2cnccc2COC)c2c3cc(ccc31)-c1cc(O)cc(c1)C[C@H](NC(=O)[C@H](C(C)C)N(C)C(=O)C1CN(C(=O)[C@H]3CN3)C1)C(=O)N1CCC[C@H](N1)C(=O)OCC(C)(C)C2 [Example 5],0.1 to 1,0.1 to 1,0.1 to 1,1 to 10,0.01 to 0.1,0.1 to 1,< 0.01,0.1 to 1,–
CCn1c(-c2cnccc2COC)c2c3cc(ccc31)-c1cc(O)cc(c1)C[C@H](NC(=O)[C@H](C(C)C)N(C)C(=O)C1CN(C(=O)[C@@H]3CN3)C1)C(=O)N1CCC[C@H](N1)C(=O)OCC(C)(C)C2 [Example 6],0.1 to 1,0.1 to 1,0.1 to 1,1 to 10,0.01 to 0.1,1 to 10,0.01 to 0.1,0.1 to 1,–
CCn1c(-c2cnccc2COC)c2c3cc(ccc31)-c1cc(O)cc(c1)C[C@H](NC(=O)[C@@H](CCNC(=O)NCCCl)C(C)C)C(=O)N1CCC[C@H](N1)C(=O)OCC(C)(C)C2 [Example 26],1 to 10,1 to 10,> 10,> 10,1 to 10,1 to 10,1 to 10,> 10,–
CCn1c(-c2cccnc2COC)c2c3cc(ccc31)-c1cc(O)cc(c1)C[C@H](NC(=O)[C@H](C(C)C)N(C)C(=O)CCNC1=NCCO1)C(=O)N1CCC[C@H](N1)C(=O)OCC(C)(C)C2 [Example 27],1 to 10,1 to 10,> 10,> 10,1 to 10,1 to 10,> 10,1 to 10,–
CCn1c(-c2cccnc2COC)c2c3cc(ccc31)-c1cc(O)cc(c1)C[C@H](NC(=O)[C@H](C(C)C)N(C)C(=O)CNC1=NCCO1)C(=O)N1CCC[C@H](N1)C(=O)OCC(C)(C)C2 [Example 28],> 10,1 to 10,> 10,> 10,1 to 10,1 to 10,1 to 10,1 to 10,–
"CCn1c(-c2cnccc2COC)c2c3cc(ccc31)-c1cc(O)cc(c1)C[C@H](NC(=O)[C@H](C(C)C)N(C)C(=O)[C@H]1CCN(C(=O)[C@@H]3CO3)C1)C(=O)N1CCC[C@H](N1)C(=O)OCC(C)(C)C2 [Example 31, (3S)—N-((2S)-1-(((6^3S,4S)-1^1-ethyl-25-hydroxy-1^2-(4-(methoxymethyl)pyridin-3-yl)-10,10-dimethyl-5,7-dioxo-6^1,6^2,6^3,6^4,6^5,6^6-hexahydro-1^1H-8-oxa-1 (5,3)-indola-6 (1,3)-pyridazina-2 (1,3)-benzenacycloundecaphane-4-yl)amino)-3-methyl-1-oxobutan-2-yl)-N-methyl-1-((S)-oxirane-2-carbonyl) pyrrolidine-3-carboxamide]",1 to 10,0.1 to 1,0.1 to 1,1 to 10,0.01 to 0.1,1 to 10,0.1 to 1,0.1 to 1,–
CCn1c(-c2cnccc2COC)c2c3cc(ccc31)-c1cc(O)cc(c1)C[C@H](NC(=O)[C@H](C(C)C)N(C)C(=O)CCN(C)C(=O)[C@@H]1CN1)C(=O)N1CCC[C@H](N1)C(=O)OCC(C)(C)C2 [Example 40],0.1 to 1,0.1 to 1,0.1 to 1,0.1 to 1,0.1 to 1,0.1 to 1,0.1 to 1,0.1 to 1,–
CCn1c(-c2cnccc2COC)c2c3cc(ccc31)-c1cc(O)cc(c1)C[C@H](NC(=O)[C@H](C(C)C)N(C)C(=O)N1CCCN(C(=O)[C@H]3CN3)CC1)C(=O)N1CCC[C@H](N1)C(=O)OCC(C)(C)C2 [Example 44],0.01 to 0.1,0.01 to 0.1,0.1 to 1,0.1 to 1,0.01 to 0.1,0.1 to 1,0.01 to 0.1,0.01 to 0.1,–
CCn1c(-c2cccnc2[C@H](C)OC)c2c3cc(ccc31)-c1cccc(c1)C[C@H](NC(=O)[C@H](C(C)C)N(C)C(=O)[C@H]1CC[C@H](N=C=NC(C)(C)C)C1)C(=O)N1CCC[C@H](N1)C(=O)OCC(C)(C)C2 [Example 125],–,1 to 10,–,–,–,–,–,–,–
CCn1c(-c2cccnc2[C@H](C)OC)c2c3cc(ccc31)-c1cc(O)cc(c1)C[C@H](NC(=O)[C@H](C1CCCC1)N(C)C(=O)[C@@H](C)N(C)C(=O)[C@@H]1N[C@@H]1C1CC1)C(=O)N1CCC[C@H](N1)C(=O)OCC(C)(C)C2 [Example 327],–,–,–,–,–,–,–,–,1 to 10
